Legend:
Experiment in all cases: Test B pre-/postemergence plant response
Format in all cases: in vivo
[1] = tested on: velvetleaf (Abutilon theophrasti)
How it was run: (§1)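 Test compounds, formulated in a non-phytotoxic solvent mixture with surfactant, are applied to the soil surface (loam and sand blend) right after seeding, or sprayed over plants at the 1- to 4-leaf stage grown in peat moss/vermiculite medium. After 13 to 15 days under glasshouse conditions, each species is scored visually from 0 (no effect) to 100 (complete control) against controls.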

[2] = tested on: woolly cupgrass (Eriochloa villosa)
How it was run: as §1

[3] = tested on: ragweed (common ragweed, Ambrosia elatior)
How it was run: as §1

[4] = tested on: large crabgrass (Digitaria sanguinalis)
How it was run: as §1

[5] = tested on: green foxtail (Setaria viridis)
How it was run: as §1

[6] = tested on: johnsongrass (Sorghum halepense)
How it was run: as §1

[7] = tested on: yellow nutsedge (Cyperus esculentus)
How it was run: as §1

kochia (Kochia scoparia) = tested on: kochia (Kochia scoparia)
How it was run: as §1

[8] = tested on: bermudagrass (Cynodon dactylon)
How it was run: as §1

soybean (Glycine max) = tested on: soybean (Glycine max)
How it was run: as §1

[9] = tested on: wheat (Triticum aestivum)
How it was run: as §1

[10] = tested on: goosegrass (Eleusine indica)
How it was run: as §1

[11] = tested on: lambsquarters (Chenopodium album)
How it was run: as §1

[12] = Postemergence, 31 g ai/ha, 0 to 100 scale (0 no effect, 100 complete control)
[13] = Postemergence, 62 g ai/ha, scale 0 to 100 (0 no effect, 100 complete control)
[14] = Postemergence, 250 g ai/ha, scale 0 to 100 (0 no effect, 100 complete control), 13 to 15 days
[15] = Preemergence, 31 g ai/ha, scale 0 to 100 (0 no effect, 100 complete control)
[16] = Preemergence, 62 g ai/ha, scale 0 to 100 (0 no effect, 100 complete control)
[17] = Preemergence, 125 g ai/ha, scale 0 to 100, 0 no effect, 100 complete control
[18] = Preemergence, 250 g ai/ha, 0 to 100 scale
[19] = Postemergence, 125 g ai/ha, scale 0 to 100 (0 no effect, 100 complete control)
[20] = Postemergence, 125 g ai/ha, scale 0 (no effect) to 100 (complete control), 13 to 15 days
[21] = 31 g ai/ha, postemergence, scale 0 to 100, 0 is no effect, 100 is complete control
[22] = 62 g ai/ha, postemergence, 0 is no effect, 100 is complete control, 13 to 15 days
[23] = Postemergence, 125 g ai/ha, visual rating after 13 to 15 days, scale 0 (no effect) to 100 (complete control)
[24] = Postemergence, 250 g ai/ha, scale 0 to 100 (0 no effect, 100 complete control)

COc1ccc(-n2c(-c3ccccc3)ncc(C(=O)C3=C(O)CCCC3=O)c2=O)cc1OC [Compound 218]
100: Plant response rating, Velvetleaf [1, 13] | Plant response rating, Velvetleaf [1, 14] | Velvetleaf plant response rating [1, 18] | Plant response rating, Ragweed [3, 14] | Ragweed plant response rating [3, 18] | Foxtail, Green plant response rating [5, 18] | Plant response rating, Kochia (kochia (Kochia scoparia); [19]) | Plant response rating, Kochia (kochia (Kochia scoparia); [14]) | Plant response rating, Bermudagrass [8, 14] | Plant response rating, Bermudagrass [8, 16] | Plant response rating, Bermudagrass [8, 17] | Bermudagrass plant response rating ([8]; Preemergence, 250 g ai/ha, 0 to 100 scale, 0 no effect, 100 complete control) | Plant response rating, Soybean (soybean (Glycine max); [13]) | Plant response rating, Soybean (soybean (Glycine max); [14]) | Plant response rating, Lambsquarters [11, 19] | Plant response rating, Lambsquarters [11, 14] | Plant response rating, Lambsquarters [11, 15] | Plant response rating, Lambsquarters [11, 16] | Plant response rating, Lambsquarters [11, 17] | Lambsquarters plant response rating [11, 18]
90: Plant response rating, Velvetleaf [1, 17] | Plant response rating, Crabgrass, Large [4, 14] | Plant response rating, Foxtail, Green [5, 19] | Plant response rating, Foxtail, Green [5, 14] | Plant response rating, Nutsedge, Yellow [7, 17] | Nutsedge, Yellow plant response rating [7, 18] | Soybean plant response rating (soybean (Glycine max); [18])
40: Plant response rating, Cupgrass, Woolly [2, 12] | Plant response rating, Crabgrass, Large [4, 12]
30: Plant response rating, Foxtail, Green [5, 16]
70: Plant response rating, Crabgrass, Large [4, 19] | Plant response rating, Bermudagrass [8, 12]
55: Plant response rating, Johnsongrass [6, 19]
80: Plant response rating, Velvetleaf [1, 15] | Plant response rating, Cupgrass, Woolly [2, 14] | Plant response rating, Foxtail, Green [5, 17] | Plant response rating, Johnsongrass [6, 14] | Plant response rating, Bermudagrass [8, 13] | Plant response rating, Soybean (soybean (Glycine max); [17])
85: Plant response rating, Velvetleaf [1, 12] | Plant response rating, Velvetleaf [1, 16] | Cupgrass, Woolly plant response rating [2, 18] | Plant response rating, Ragweed [3, 15] | Plant response rating, Foxtail, Green [5, 13] | Plant response rating, Kochia (kochia (Kochia scoparia); [13]) | Plant response rating, Soybean (soybean (Glycine max); [12])
10: Plant response rating, Nutsedge, Yellow [7, 12] | Plant response rating, Goosegrass [10, 13] | Plant response rating, Goosegrass [10, 15]
15: Plant response rating, Nutsedge, Yellow [7, 13] | Plant response rating, Nutsedge, Yellow [7, 19] | Plant response rating, Goosegrass [10, 19]
98: Plant response rating, Ragweed [3, 17] | Crabgrass, Large plant response rating [4, 18] | Plant response rating, Bermudagrass [8, 15] | Plant response rating, Goosegrass [10, 17] | Goosegrass plant response rating [10, 18] | Plant response rating, Lambsquarters [11, 12] | Plant response rating, Lambsquarters [11, 13]
95: Plant response rating, Ragweed [3, 12] | Plant response rating, Ragweed [3, 13] | Plant response rating, Ragweed [3, 16] | Plant response rating, Bermudagrass [8, 19]
20: Plant response rating, Crabgrass, Large [4, 16] | Plant response rating, Johnsongrass [6, 17]
45: Plant response rating, Cupgrass, Woolly [2, 13] | Plant response rating, Crabgrass, Large [4, 13] | Johnsongrass plant response rating [6, 18] | Plant response rating, Nutsedge, Yellow [7, 15]
35: Plant response rating, Kochia (kochia (Kochia scoparia); [12]) | Plant response rating, Goosegrass [10, 14]
0: Plant response rating, Cupgrass, Woolly [2, 15] | Plant response rating, Cupgrass, Woolly [2, 16] | Plant response rating, Crabgrass, Large [4, 15] | Plant response rating, Foxtail, Green [5, 15] | Plant response rating, Johnsongrass [6, 15] | Plant response rating, Johnsongrass [6, 16] | Plant response rating, Soybean (soybean (Glycine max); [15]) | Plant response rating, Wheat [9, 12] | Plant response rating, Wheat [9, 13] | Plant response rating, Wheat [9, 14] | Plant response rating, Wheat [9, 15] | Plant response rating, Wheat [9, 16] | Plant response rating, Wheat [9, 17] | Wheat plant response rating [9, 18] | Plant response rating, Goosegrass [10, 12]
75: Plant response rating, Nutsedge, Yellow [7, 16]
65: Plant response rating, Cupgrass, Woolly [2, 17] | Plant response rating, Crabgrass, Large [4, 17] | Plant response rating, Soybean (soybean (Glycine max); [16])
60: Plant response rating, Cupgrass, Woolly [2, 19] | Plant response rating, Foxtail, Green [5, 12] | Plant response rating, Nutsedge, Yellow [7, 14] | Plant response rating, Goosegrass [10, 16]

CCn1c(-c2ccccc2)ncc(C(=O)C2=C(O)C3CCC(C3)C2=O)c1=O (centres unmarked) [Compound 239]
100: Plant response rating, Velvetleaf [1, 12] | Plant response rating, Velvetleaf [1, 13] | Plant response rating, Velvetleaf [1, 20] | Plant response rating, Velvetleaf [1, 14] | Plant response rating, Ragweed [3, 20] | Plant response rating, Ragweed [3, 14] | Plant response rating, Bermudagrass [8, 13] | Plant response rating, Bermudagrass [8, 20] | Plant response rating, Bermudagrass [8, 14] | Plant response rating, Goosegrass [10, 14] | Plant response rating, Lambsquarters [11, 20] | Plant response rating, Lambsquarters [11, 14]
70: Plant response rating, Nutsedge, Yellow [7, 14] | Plant response rating, Soybean (soybean (Glycine max); [12])
5: Plant response rating, Wheat [9, 20]
95: Plant response rating, Cupgrass, Woolly [2, 13] | Plant response rating, Cupgrass, Woolly [2, 20] | Plant response rating, Cupgrass, Woolly [2, 14] | Plant response rating, Ragweed [3, 12] | Plant response rating, Crabgrass, Large [4, 20] | Plant response rating, Foxtail, Green [5, 14] | Plant response rating, Bermudagrass [8, 12] | Plant response rating, Soybean (soybean (Glycine max); [13])
0: Plant response rating, Johnsongrass [6, 12] | Plant response rating, Wheat [9, 12] | Plant response rating, Wheat [9, 13]
90: Plant response rating, Crabgrass, Large [4, 13] | Plant response rating, Foxtail, Green [5, 20] | Plant response rating, Kochia (kochia (Kochia scoparia); [12])
80: Plant response rating, Foxtail, Green [5, 12] | Plant response rating, Goosegrass [10, 12]
60: Plant response rating, Johnsongrass [6, 20]
65: Plant response rating, Nutsedge, Yellow [7, 20]
98: Plant response rating, Ragweed [3, 13] | Plant response rating, Crabgrass, Large [4, 14] | Plant response rating, Kochia (kochia (Kochia scoparia); [13]) | Plant response rating, Kochia (kochia (Kochia scoparia); [20]) | Plant response rating, Kochia (kochia (Kochia scoparia); [14]) | Plant response rating, Soybean (soybean (Glycine max); [20]) | Plant response rating, Soybean (soybean (Glycine max); [14]) | Plant response rating, Goosegrass [10, 13] | Plant response rating, Goosegrass [10, 20] | Plant response rating, Lambsquarters [11, 12] | Plant response rating, Lambsquarters [11, 13]
85: Plant response rating, Foxtail, Green [5, 13]
30: Plant response rating, Nutsedge, Yellow [7, 12] | Plant response rating, Nutsedge, Yellow [7, 13] | Plant response rating, Wheat [9, 14]
20: Plant response rating, Johnsongrass [6, 13]
75: Plant response rating, Cupgrass, Woolly [2, 12] | Plant response rating, Crabgrass, Large [4, 12]

O=C1CCCC(O)=C1C(=O)c1cnc(-c2ccccc2Br)n(-c2ccccc2)c1=O [Compound 71]
65: Plant response rating, Crabgrass, Large [4, 21] | Plant response rating, Johnsongrass [6, 21] | Plant response rating, Kochia (kochia (Kochia scoparia); [24]) | Plant response rating, Bermudagrass [8, 21] | Plant response rating, Soybean (soybean (Glycine max); [21])
85: Velvetleaf plant response rating (0 to 100 scale) [1, 22] | Plant response rating, Cupgrass, Woolly [2, 23] | Lambsquarters plant response rating (0 to 100 scale) [11, 22]
100: Plant response rating, Cupgrass, Woolly [2, 24] | Plant response rating, Johnsongrass [6, 24]
70: Plant response rating, Foxtail, Green [5, 23] | Soybean plant response rating (0 to 100 scale) (soybean (Glycine max); [22])
60: Plant response rating, Foxtail, Green [5, 21] | Foxtail, Green plant response rating (0 to 100 scale) [5, 22]
10: Plant response rating, Cupgrass, Woolly [2, 21] | Plant response rating, Nutsedge, Yellow [7, 21] | Nutsedge, Yellow plant response rating (0 to 100 scale) [7, 22] | Plant response rating, Nutsedge, Yellow [7, 23]
0: Plant response rating, Kochia (kochia (Kochia scoparia); [21]) | Kochia plant response rating (0 to 100 scale) (kochia (Kochia scoparia); [22]) | Plant response rating, Wheat [9, 21] | Wheat plant response rating (0 to 100 scale) [9, 22] | Plant response rating, Wheat [9, 23]
5: Plant response rating, Wheat [9, 24]
80: Ragweed plant response rating (0 to 100 scale) [3, 22] | Plant response rating, Ragweed [3, 23] | Plant response rating, Crabgrass, Large [4, 23] | Plant response rating, Bermudagrass [8, 23]
95: Plant response rating, Velvetleaf [1, 24] | Plant response rating, Ragweed [3, 24] | Plant response rating, Crabgrass, Large [4, 24] | Plant response rating, Soybean (soybean (Glycine max); [23])
90: Plant response rating, Velvetleaf [1, 23] | Plant response rating, Goosegrass [10, 23] | Plant response rating, Goosegrass [10, 24] | Plant response rating, Lambsquarters [11, 23]
45: Cupgrass, Woolly plant response rating (0 to 100 scale) [2, 22]
98: Plant response rating, Foxtail, Green [5, 24] | Plant response rating, Johnsongrass [6, 23] | Plant response rating, Bermudagrass [8, 24] | Plant response rating, Soybean (soybean (Glycine max); [24]) | Plant response rating, Lambsquarters [11, 24]
25: Plant response rating, Nutsedge, Yellow [7, 24] | Plant response rating, Kochia (kochia (Kochia scoparia); [23])
75: Plant response rating, Velvetleaf [1, 21] | Plant response rating, Ragweed [3, 21] | Crabgrass, Large plant response rating (0 to 100 scale) [4, 22] | Johnsongrass plant response rating (0 to 100 scale) [6, 22] | Bermudagrass plant response rating (0 to 100 scale) [8, 22] | Plant response rating, Goosegrass [10, 21] | Goosegrass plant response rating (0 to 100 scale) [10, 22] | Plant response rating, Lambsquarters [11, 21]

Reference: patent US8952024B2, “Herbicidal pyrimidone derivatives” (E I du Pont de Nemours and Company, priority 2009, dated 2015)
